The species entered for assay [1] is Rattus norvegicus. The assay can be described thus: Potency of compound was determined in rat vas deferens relative to substance E. It is filed as functional.
Assay [2] has as its target Substance-P receptor (Rattus norvegicus) (UniProt P14600). The assay can be described thus: Potency for [3H]SP binding to Tachykinin receptor 1 in rat brain central nervous system (CNS). The class given is tissue-based.
For another assay, the system named is Cricetinae gen. sp. Kind of assay: Potency of compound was determined in hamster bladder relative to substance E. It is filed as functional.
For assay [3], the species on record is Rattus norvegicus. The assay can be described thus: Potency of compound was determined for contraction of rat bladder relative to substance P(=1). It is filed as functional.
The species entered for assay [4] is Cavia porcellus. Kind of assay: Potency of compound was determined for contraction of guinea pig vas deferens relative to substance P(=1). It is filed as functional.
The species named for assay [5] is Cavia porcellus. The assay can be described thus: Potency of compound was determined for contraction of guinea pig ileum relative to substance P(=1). It is filed as functional.
The species named for assay [6] is Rattus norvegicus. The assay can be described thus: Potency of compound was determined in rat duodenum relative to substance E. It is filed as functional.

Molecules are shown by their SMILES. Square brackets hold non-standard residues; d marks the D form. Peptide text beside a SMILES is read from it. pGlu = O=C1CC[C@@H](C(=O)O)N1

Chain of Substance-P receptor (Rattus norvegicus) (P14600 whole entry): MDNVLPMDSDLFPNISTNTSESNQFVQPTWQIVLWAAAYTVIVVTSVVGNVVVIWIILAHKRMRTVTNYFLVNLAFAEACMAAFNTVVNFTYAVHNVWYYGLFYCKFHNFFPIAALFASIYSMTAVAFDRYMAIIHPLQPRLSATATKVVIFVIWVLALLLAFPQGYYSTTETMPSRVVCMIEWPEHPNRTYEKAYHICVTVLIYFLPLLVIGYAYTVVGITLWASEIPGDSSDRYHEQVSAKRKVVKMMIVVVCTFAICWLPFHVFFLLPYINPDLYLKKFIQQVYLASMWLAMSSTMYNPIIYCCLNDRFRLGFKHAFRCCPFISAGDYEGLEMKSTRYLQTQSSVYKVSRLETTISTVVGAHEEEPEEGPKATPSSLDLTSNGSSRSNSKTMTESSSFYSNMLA

`CC[C@H](C)[C@H](NC(=O)[C@H](Cc1ccccc1)NC(=O)[C@H](C)NC(=O)[C@H](CC(=O)O)NC(=O)[C@H](CCCCN)NC(=O)[C@H](CO)NC(=O)[C@@H]1CCCN1C(=O)[C@@H]1CCC(=O)N1)C(=O)NCC(=O)N[C@@H](CC(C)C)C(=O)N[C@@H](CCSC)C(N)=O` [ELEDOISIN] ([pGlu]PSKDAFIGLM-NH2): the Potency in the assay listed under Rattus norvegicus [1] worked out at 86; in assay [2], 0.3; in the assay on Cricetinae gen. sp. it was 105; in the assay listed under Rattus norvegicus [3], 0.96; in the assay filed under Cavia porcellus [4], 0.6; in the assay filed under Cavia porcellus [5] it was 0.9. This molecule came in with a Potency in the assay filed under Rattus norvegicus [6] of 13.9.

The values are drawn from ChEMBL document CHEMBL1122212, “Substance P” (1982).
